Laboratory results as given in PubChem BioAssay (NCI).
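Here, GI50 denotes the concentration required for 50% inhibition of growth. TGI is the concentration that stops growth completely.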

Columns and labels:
Test in all cases: NCI-60 cell line screen, 384-well format
[1] = tested on: HCC-2998 colon
[2] = tested on: MDA-MB-231 breast
[3] = tested on: ACHN renal
[4] = tested on: OVCAR-3 ovarian
[5] = tested on: OVCAR-4 ovarian
[6] = tested on: NCI-H460 NSCLC
[7] = tested on: RPMI-8226 leukemia
[8] = tested on: U251 glioblastoma
[9] = tested on: M14 melanoma
[10] = tested on: EKVX NSCLC
[11] = tested on: HCT-15 colon
[12] = tested on: HL-60(TB) leukemia
[13] = tested on: CAKI-1 renal
[14] = tested on: RXF 393 renal
[15] = tested on: MALME-3M melanoma
[16] = tested on: SF-295 CNS
[17] = tested on: HCT-116 colon
[18] = tested on: IGROV1 ovarian
[19] = tested on: A549 NSCLC
[20] = tested on: NCI-H23 lung
[21] = tested on: SF-539 CNS
[22] = tested on: HT29 colon
[23] = tested on: MCF7 breast
[24] = tested on: SW-620 colon
[25] = tested on: HOP-62 NSCLC
[26] = tested on: UACC-62 melanoma
[27] = tested on: SR leukemia
[28] = tested on: KM12 colon
[29] = tested on: COLO 205 colon
[30] = tested on: OVCAR-8 ovarian
[31] = tested on: LOX IMVI melanoma
[32] = tested on: NCI/ADR-RES ovarian
[33] = tested on: T-47D breast
[34] = tested on: A498 renal
[35] = tested on: SF-268 CNS
[36] = tested on: SK-OV-3 ovarian
[37] = tested on: UACC-257 melanoma
[38] = tested on: BT-549 breast
[39] = tested on: DU-145 prostate
[40] = tested on: UO-31 renal
[41] = tested on: HS 578T breast
[42] = tested on: SNB-75 CNS
[43] = tested on: TK-10 renal
[44] = tested on: K-562 leukemia
[45] = tested on: MDA-MB-435 melanoma
[46] = tested on: CCRF-CEM leukemia
[47] = tested on: HOP-92 NSCLC
[48] = tested on: 786-0 renal
[49] = tested on: NCI-H522 lung
[50] = tested on: NCI-H322M lung
[51] = tested on: SK-MEL-28 melanoma
[52] = tested on: SK-MEL-5 melanoma
[53] = tested on: NCI-H226 lung
[54] = tested on: PC-3 prostate

Compound: CCCCCCCCCCCCCCCC(=O)Nc1ccn([C@@H]2O[C@H](CO)[C@@H](O)[C@@H]2C#N)c(=O)n1
- GI50 [1]: 0.464 µM
- TGI [1]: 10.6 µM
- GI50 [2]: 11.1 µM
- TGI [2]: > 100 µM
- GI50 [3]: 0.988 µM
- TGI [3]: 39.1 µM
- GI50 [4]: 10.3 µM
- TGI [4]: 37.9 µM
- GI50 [5]: 28.1 µM
- TGI [5]: > 100 µM
- GI50 [6]: 0.143 µM
- TGI [6]: 10.1 µM
- GI50 [7]: 4.4 µM
- TGI [7]: 20.6 µM
- GI50 [8]: 0.314 µM
- TGI [8]: 23.5 µM
- GI50 [9]: 3 µM
- TGI [9]: 22.4 µM
- GI50 [10]: 28.4 µM
- TGI [10]: > 100 µM
- GI50 [11]: 0.946 µM
- TGI [11]: 66.9 µM
- GI50 [12]: 0.368 µM
- TGI [12]: 1.4 µM
- GI50 [13]: 2.44 µM
- TGI [13]: 43.6 µM
- GI50 [14]: 16.6 µM
- TGI [14]: > 100 µM
- GI50 [15]: 10.5 µM
- TGI [15]: 28 µM
- GI50 [16]: 0.716 µM
- TGI [16]: > 100 µM
- GI50 [17]: 0.454 µM
- TGI [17]: 18.8 µM
- GI50 [18]: 12.7 µM
- TGI [18]: 86 µM
- GI50 [19]: 1.32 µM
- TGI [19]: 20 µM
- GI50 [20]: 0.244 µM
- TGI [20]: 15.5 µM
- GI50 [21]: 4.82 µM
- TGI [21]: 38.3 µM
- GI50 [22]: 12.5 µM
- TGI [22]: > 100 µM
- GI50 [23]: 1.33 µM
- TGI [23]: 24.3 µM
- GI50 [24]: 4.81 µM
- TGI [24]: > 100 µM
- GI50 [25]: 0.0542 µM
- TGI [25]: 18.5 µM
- GI50 [26]: 0.655 µM
- TGI [26]: 23.5 µM
- GI50 [27]: 0.139 µM
- TGI [27]: 0.339 µM
- GI50 [28]: 6.5 µM
- TGI [28]: 35.2 µM
- GI50 [29]: 0.325 µM
- TGI [29]: > 100 µM
- GI50 [30]: 0.292 µM
- TGI [30]: 18.4 µM
- GI50 [31]: 3.42 µM
- TGI [31]: 17.7 µM
- GI50 [32]: 11.1 µM
- TGI [32]: > 100 µM
- GI50 [33]: 35.1 µM
- TGI [33]: > 100 µM
- GI50 [34]: 0.74 µM
- TGI [34]: 15.8 µM
- GI50 [35]: 0.43 µM
- TGI [35]: 19.9 µM
- GI50 [36]: 1.15 µM
- TGI [36]: 39.1 µM
- GI50 [37]: 20.1 µM
- TGI [37]: 74.6 µM
- GI50 [38]: 5.56 µM
- TGI [38]: 24.2 µM
- GI50 [39]: 0.751 µM
- TGI [39]: 21.7 µM
- GI50 [40]: 11.7 µM
- TGI [40]: 45.7 µM
- GI50 [41]: 1.58 µM
- TGI [41]: 20.4 µM
- GI50 [42]: 4.66 µM
- TGI [42]: 52.5 µM
- GI50 [43]: 34.8 µM
- TGI [43]: > 100 µM
- GI50 [44]: 2.52 µM
- TGI [44]: 17.7 µM
- GI50 [45]: 28.1 µM
- TGI [45]: > 100 µM
- TGI [46]: 0.12 µM
- GI50 [47]: 4.71 µM
- TGI [47]: 35.3 µM
- GI50 [48]: 0.0598 µM
- TGI [48]: 29.8 µM
- GI50 [49]: 6.11 µM
- TGI [49]: 23.4 µM
- GI50 [50]: 14.6 µM
- TGI [50]: 31 µM
- GI50 [51]: 6.96 µM
- TGI [51]: 30.1 µM
- GI50 [52]: 7.71 µM
- TGI [52]: 21 µM
- GI50 [53]: 13.3 µM
- TGI [53]: 54.9 µM
- GI50 [54]: 13.3 µM
- TGI [54]: 92.5 µM
